# Data published in patent US7569695B2, “Dyes for the detection or quantification of desirable target molecules” (Enzo Life Sciences, Inc., priority 2005, dated 2009).
# Key:
# [1] = system: 78 bp amplicon from the anti-sense C construct; experiment: Amplification of nucleic acids in the presence of dye using a standard PCR machine (Example 34); type: biochemical; conditions: for amplicon synthesis (gel analysis, FIG. 2): 20 cycles
# Protocol: The experiment shown in Example 33 was repeated using a standard PCR machine for synthesis to see if the effects observed in Example 33 was dependent upon the rapid heating and cooling steps used in the Light Cycler.
# A master mixture was made up of: • 500 µl of 2× PCR mix described in example 33 • 20 µl of 25 mM MgCl2 • 175 µl of DEPC treated H2O • 10 ul of 1 u/l ung (Epicentre) • 10 µl of 10 mg/ml BSA (New England Biolabs, Beverly, Mass.) • 10 l Taq polymease (Perkin Elmer)+10 µl of TaqStart (Clontech) PCR conditions were 2.5 µl of target template+2.0 l of dye was added to 15.5 µl of Master mixture incubated at 45° C. for 10 minutes and then amplified using cycles of: • a) 94° C. for 30 seconds • b) 65° C. for 30 seconds • c) 72° C. for 1 minute
# A duplicate set of samples was amplified with one set being taken out after 20 cycles of amplification and the second set undergoing 40 cycles. […] The other effect previously observed was also seen, i.e. non-target amplicon synthesis seen in the no Dye reaction (lane 1) was reduced with the 1:200 dilution of SYBR Green and the 1:10 dilution of Dye 109 again repeating the results of Example 33.
# [2] = system: 78 bp amplicon from the anti-sense C construct; experiment: Amplification of nucleic acids on the Light Cycler in the presence of dye (Example 33); type: biochemical
# Protocol: A target template was amplified on the Light Cycler (Roche) in the presence of various amounts of Dye 109 from Example 14. As a control, various amounts of SYBR Green (Molecular Probes, Eugene, Oreg.) were also included. The template was a 1:500 dilution of a 78 bp amplicon made in a previous reaction from the anti-sense C construct described in Liu et al. 1997 (J. Virol. 71: 4079-4085). A 2×PCR mix was made up of 20 mM Tris pH 8.3, 50 mM KCl, 4 mM MgCl2, 0.4 mM dCTP, 0.4 mM dGTP, 0.4 mM dATP, 0.8 mM dUTP, […] and […].
# The Forward Primer sequence is comprised of 20 nucleotides: 5′ […] 3′ (SEQ ID NO: 1). It is an artificial sequence comprising a fusion of human Ul and HIV sequences. Bases 1-7 (CATGATC) of the first sequence are derived from plasmid pHSD-4 and comprise sequences from the human Ul gene. Bases […] (GATCCGGATGGGAGGTG) of the second sequence are derived from a region of the BAL strain of HIV containing the Tat/Rev splice acceptor site.
# The Reverse Primer sequence is comprised of 22 nucleotides: 5′[…] (SEQ ID NO: 2). It is an artificial sequence comprising a fusion of human Ul and HIV sequences. Bases 1-11 (GCACATCCGGA) of the first sequence are derived from plasmid pHSD-4 and comprise sequences from the human Ul gene. Bases […] (GATCCGGATGGGAGGTG) of the second sequence are derived from a region of the BAL strain of HIV containing the Tat/Rev splice acceptor site.
# The 78 bp amplicon synthesized with Forward Primer (SEQ ID NO: 1) and Reverse Primer (SEQ ID NO: 2) has the following sequence: 5′ […] 3′ (SEQ ID NO: 3). It is an artificial sequence comprising a fusion of human Ul and HIV sequences. Bases 1-11 (GCACATCCGGA) and 68-78 (TCCGGATGTGC) are derived from plasmid pHSD-4 and comprise sequences from the human Ul gene. Bases […] are derived from a region of the BAL strain of HIV containing the Tat/Rev splice acceptor site.
# A master mixture was made up of: • 350 µl of 2×PCR mix described above • 14 µl of 25 mM MgCl2 • 122.5 µl of DEPC treated H2O • 14 ul of 1 u/l ung (Epicentre) • 7 µl of 10 mg/ml BSA (New England Biolabs, Beverly, Mass.) • 7 l Taq polymease (Perkin Elmer)+7 µl of TaqStart (Clontech) • 2.5 µl of target template+2.0 l of various dilutions of dyes were added to 15.5 µl of Master mixture, incubated at 45° C. for 10 minutes and then amplified by: • 1) Melting • 2 minutes @ 95° C. • 2) Cycling • a) Denaturation step: 0 seconds @ 95° C. • b) Annealing step: 5 seconds @ 69° C. for first cycle; subsequent cycles were each reduced by 0.5° C. until 65° C. was reached and all annealing steps in further cycles were carried out at this temperature • c) Extension step: 5 seconds @ 72° C. • 3) After completion of 56 cycles, all samples were maintained at 4° C. until analyzed.
# After the amplification reactions were finished, the samples were analyzed by gel electrophoresis. For SYBR Green, the recommended reaction concentration is 1:10,000. As such, the amplification products shown in lanes 5 and 6 using 2 l of […] dilution in a 20 l reaction (final=1:8,000) is approximately representative of the product from the standard procedure. For Dye 109, the reactions are listed in terms of dilutions of a stock of Dye 109 with an OD reading of 200 taken at 495 nm. […] However, when lower dilutions of the dyes were added there was no inhibition of the process.
# [3] = 1:200 dilution of SYBR Green, lane 7
structure (smiles),measurement,setting,value
"CCCN(CCCN(C)C)c1cc(/C=C2/Sc3ccccc3N2C)c2ccccc2[n+]1-c1ccccc1 [SYBR Green, reference compound]","amplicon synthesis (gel analysis, FIG. 2)","[1]; 1:200 dilution of SYBR Green, lanes 5 and 6",a single discrete band
same,"amplicon synthesis (gel analysis, FIG. 2)",[1]; all other SYBR Green dilutions,no synthesis was evident
same,non-target amplicon synthesis compared to the no Dye reaction,"[1]; 40 cycles, 1:200 dilution of SYBR Green",reduced
same,"amplification (gel analysis, FIG. 1)","[2]; 1:20 dilution of SYBR Green, 56 cycles",strong inhibition of amplification
same,synthesis of non-target derived amplicons,[2]; [3],elimination or suppression of the synthesis of non-target derived amplicons
same,synthesis of target derived amplicons compared to the reaction without any dye,[2]; [3],enhancement of overall synthesis of target derived amplicons
